Results: paper PMC11944476, “In Vitro Evaluation of Esters of Quinoxaline-1,4-di-N-oxide Derivatives as New Antitaeniasis Agents and Their Inhibitory Activity Against Triosephosphate Isomerase” (Pharmaceuticals, 2025)

Tests used:
[1] = target: T1, recombinant TsTIM (WT TsTIM) (Taenia solium, UniProt Q9GTX8); experiment: enzyme inactivation assay, GAP to DHAP, alpha-GDH coupled NADH oxidation at […] nm; format: biochemical
T1 construct: N-terminal six-His tag from pRSET, expressed in E. coli BL21 Codon Plus (DE3)-RIL, IMAC-purified, tag removal not mentioned; TIM is a dimer
T1 sequence (Q9GTX8 whole entry): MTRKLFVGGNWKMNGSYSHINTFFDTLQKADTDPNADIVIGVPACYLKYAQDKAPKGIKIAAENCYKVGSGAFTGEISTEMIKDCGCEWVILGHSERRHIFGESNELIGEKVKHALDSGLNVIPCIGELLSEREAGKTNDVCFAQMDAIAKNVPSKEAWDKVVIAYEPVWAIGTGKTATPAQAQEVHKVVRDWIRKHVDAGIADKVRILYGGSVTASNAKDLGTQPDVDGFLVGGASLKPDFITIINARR

[2] = target: T1, recombinant TsTIM (WT TsTIM); experiment: alpha-GDH coupled NADH oxidation at […] nm; format: biochemical; conditions: GAP to DHAP direction

| SMILES | inhibition at 1000 µM [1] [%] | alpha-GDH coupled NADH oxidation at 340 nm [2] |
| --- | --- | --- |
| CCOC(=O)c1ccc2c(c1)[n+]([O-])c(C(=O)c1cccs1)c(C(F)(F)F)[n+]2[O-] [TS-12] | < 40 |  |
| O=C[C@H](O)COP(=O)(O)O [glyceraldehyde 3-phosphate] |  | measuring the conversion of glyceraldehyde 3-phosphate (GAP) to dihydroxyacetone phosphate (DHAP) |
